{
  "source": "patent US20250099475A1",
  "about": "“METHODS OF TREATING HYPERTENSION BY PERIODIC SUPPRESSION OF ALDOSTERONE SYNTHASE” (Mineralys Therapeutics, Inc., priority 2022, published 2025)",
  "key": {"[1]": {"experiment": "Phase 1 part 2 multiple ascending dose: pharmacokinetics", "type": "in vivo, human", "conditions": "for half-life: male, human, plasma, oral", "method": "A 4-part, Phase 1 randomized, double-blind, placebo-controlled, first-in-human study was performed to determine the safety, tolerability, PK, and PD of single ascending doses (SADs; part 1) and multiple ascending doses (MADs; part 2) of Compound A HBr in healthy participants. The study also assessed whether there were sex (part 3) and age-related (part 4) effects on the PK of a single dose of Compound A HBr. The study was approved by the local independent ethics committee; the BEBO foundation in Assen, Netherlands; and the Central Committee on Research Involving Human Subjects in The Hague, Netherlands; and conducted according to the provisions of the Declaration of Helsinki. Written informed consent was obtained from each study participant before conducting any protocol-related procedures.\nIn part 2, Compound A HBr or placebo was administered to a total of 36 healthy Caucasian men aged 19 to 54 years (inclusive) in 3 cohorts of 12 participants each. In each cohort, 9 participants were randomized to receive multiple doses of Compound A HBr and 3 participants were randomized to receive matching placebo. The participants received daily doses in the fed state from Day 1 to Day 7. The doses were administered in an ascending order per cohort. Progression to the next dose level and dose selection were based on available data from part 1 and the preceding dose cohort in part 2 (safety, tolerability, and PD data [up to 48 hours post-final dose] and available PK data [up to 24 hours post-final dose] from a minimum of 10 participants [Compound A HBr n≥7] in the preceding dose cohort). The final dose levels of Compound A HBr for part 2 were 40, 120, and 360 mg. An ACTH challenge test was performed on Day −2 and on Day 6 to evaluate Compound A HBr selectivity for aldosterone synthesis. Plasma concentrations of aldosterone and 11-deoxycortisol and serum concentrations of cortisol and 11-DOC were measured pre-ACTH dose and 30 and 60 minutes post-ACTH dose on Day −2 and Day 6.\nPlasma PK parameters were derived by non-compartmental analysis using WinNonlin® (version 6.3). Dose proportionality was assessed using the power model with AUC0-∞, AUC0-last, and Cmax for part 1 (SAD) and with AUC0-last, AUC0-∞, AUC0-τ, and Cmax for part 2 (MAD). A linear model (ln(Y)=α+β×ln(X), where Y is the pharmacokinetic parameter and X is the dose) was used to fit the power model, after log-transformation of the parameters. Dose proportionality was concluded if the 95% confidence interval (CI) for slope (β) included the value 1.\nAn analytical method for the determination of Compound A in human plasma (dipotassium ethylenediaminetetraacetic acid [K2-EDTA]) and human urine using solid-phase extraction and high-performance liquid chromatography with mass spectrometric detection was successfully validated over the concentration range 0.1000 ng/mL (lower limit of quantification) to 100.0 ng/mL prior to initiation of the clinical trial. […] For all other analytes, validated quantitative measurement methods were used."}, "[2]": {"system": "cardiovascular system", "experiment": "Cardiovascular system in telemetered monkeys", "type": "in vivo, cynomolgus monkey", "conditions": "single oral doses up to 100-mg/kg as free base", "method": "Effects of Compound A on the cardiovascular system were evaluated with conscious telemetered cynomolgus monkeys. Single doses of 0, 10, 30, or 100 mg/kg of Compound A as free base were orally administered to four male monkeys in a Latin-square design with a 7-day interval between dosing. Blood pressure, heart rate, and electrocardiogram parameters (PR interval, QRS duration, QT interval, and QTcB) were evaluated up to 24 hours after each dosing."}},
  "note": "Like-named read-outs stand apart in the source and are kept apart here.",
  "data": [
    {"compound": "CC(=O)N[C@H]1CC[C@H](NC(=O)CN2CCN(c3nncc(-c4ccc(C)cc4)n3)CC2)CC1", "note": "[Compound A HBr]", "values": [
      {"measurement": "AUC0-24, mean (SD)", "setting": "[1]; 40 mg once daily, Day 1, fed", "result": "1574 (282) ng × h/mL"},
      {"measurement": "Cmax, mean (SD)", "setting": "[1]; 40 mg once daily, Day 1, fed", "result": "252 (64) ng/mL"},
      {"measurement": "Tmax, median and range", "setting": "[1]; 40 mg once daily, Day 1, fed", "result": "3 (0.5-5) h"},
      {"measurement": "AUC0-24, mean (SD)", "setting": "[1]; 40 mg once daily, Day 7, fed", "result": "1795 (312) ng × h/mL"},
      {"measurement": "Cmax, mean (SD)", "setting": "[1]; 40 mg once daily, Day 7, fed", "result": "365 (46) ng/mL"},
      {"measurement": "T 1/2, mean (SD)", "setting": "[1]; 40 mg once daily, Day 7, fed", "result": "9 (2) h"},
      {"measurement": "Tmax, median and range", "setting": "[1]; 40 mg once daily, Day 7, fed", "result": "1.5 (0.5-5) h"},
      {"measurement": "AUC0-24, mean (SD)", "setting": "[1]; 120 mg once daily, Day 1, fed", "result": "4876 (1024) ng × h/mL"},
      {"measurement": "Cmax, mean (SD)", "setting": "[1]; 120 mg once daily, Day 1, fed", "result": "887 (291) ng/mL"},
      {"measurement": "Tmax, median and range", "setting": "[1]; 120 mg once daily, Day 1, fed", "result": "3 (0.5-8) h"},
      {"measurement": "AUC0-24, mean (SD)", "setting": "[1]; 120 mg once daily, Day 7, fed", "result": "5816 (1315) ng × h/mL"},
      {"measurement": "Cmax, mean (SD)", "setting": "[1]; 120 mg once daily, Day 7, fed", "result": "1039 (343) ng/mL"},
      {"measurement": "T 1/2, mean (SD)", "setting": "[1]; 120 mg once daily, Day 7, fed", "result": "12 (2) h"},
      {"measurement": "Tmax, median and range", "setting": "[1]; 120 mg once daily, Day 7, fed", "result": "2.5 (1-4)^ h"},
      {"measurement": "AUC0-24, mean (SD)", "setting": "[1]; 360 mg once daily, Day 1, fed", "result": "19335 (3111) ng × h/mL"},
      {"measurement": "Cmax, mean (SD)", "setting": "[1]; 360 mg once daily, Day 1, fed", "result": "3220 (1171) ng/mL"},
      {"measurement": "Tmax, median and range", "setting": "[1]; 360 mg once daily, Day 1, fed", "result": "3 (2-5) h"},
      {"measurement": "AUC0-24, mean (SD)", "setting": "[1]; 360 mg once daily, Day 7, fed", "result": "21825 (3955) ng × h/mL"},
      {"measurement": "Cmax, mean (SD)", "setting": "[1]; 360 mg once daily, Day 7, fed", "result": "3812 (1282) ng/mL"},
      {"measurement": "T 1/2, mean (SD)", "setting": "[1]; 360 mg once daily, Day 7, fed", "result": "9 (2) h"},
      {"measurement": "Tmax, median and range", "setting": "[1]; 360 mg once daily, Day 7, fed", "result": "2 (1-3) h"},
      {"measurement": "half-life", "setting": "[1]; 40 mg once daily, Day 1, fed, read-out: T 1/2, mean (SD) (converted)", "result": 5, "unit": "h"},
      {"measurement": "half-life", "setting": "[1]; 120 mg once daily, Day 1, fed, read-out: T 1/2, mean (SD) (converted)", "result": 4, "unit": "h"},
      {"measurement": "half-life", "setting": "[1]; 360 mg once daily, Day 1, fed, read-out: T 1/2, mean (SD) (converted)", "result": 4, "unit": "h"},
      {"measurement": "half-life", "setting": "[1]; once-daily dosing, read-out: t1/2 on Day 7 (converted)", "result": "~10", "unit": "h"},
      {"measurement": "Steady state achieved by", "setting": "[1]; once-daily 40 to 360 mg", "result": "~5", "unit": "days"}
    ]},
    {"compound": "CC(=O)N[C@H]1CC[C@H](NC(=O)CN2CCN(c3nncc(-c4ccc(C)cc4)n3)CC2)CC1", "note": "[Compound A]", "values": [
      {"measurement": "effects on cardiovascular parameters (blood pressure, heart rate, electrocardiogram)", "setting": "[2]", "result": "no effects"}
    ]}
  ]
}
